Values joined by “and” are separate entries in the source; they are usually repeats but may differ in a detail not shown here. Equal values may be shown once.
Tested on: Angiotensin II (AII) vasopressor response
Assay: AII challenge: vasopressor response of angiotensin II in conscious SHR
Type: in vivo, rat (Conscious Male Okamoto-Aoki SHR)
Details: single rat, SHR
Excerpt: By administering a compound of this invention to a rat, and then challenging with angiotensin II, a blockage of the vasopressor response is realized.
Conscious Male Okamoto-Aoki SHR, 16-20 weeks old, weighing approximately 330 g are purchased from Charles River Labs (Wilmington, Mass.). Conscious rats are restrained in a supine position with elastic tape. The area at the base of the tail is locally anesthetized by subcutaneous infiltration with 2% procaine. The ventral caudal artery and vein are isolated, and a cannula made of polyethylene (PE) 10-20 tubing (fused together by heat) is passed into the lower abdominal aorta and vena cava, respectively. The cannula is secured, heparinized (1,000 I.U./ml), sealed and the wound is closed. The animals are placed in plastic restraining cages in an upright position. The cannula is attached to a Statham P23Db pressure transducer, and pulsatile blood pressure is recorded to 10-15 minutes with a Gould Brush recorder. (Chan et al., (Drug Development Res., 18:75-94, 1989).
Angiotensin II (human sequence, Sigma Chem. Co., St. Louis, Mo.) of 0.05 and 0.1 ug/kg i.v. is injected into all rats (predosing response). Then a test compound, vehicle or a known angiotensin II antagonist is administered i.v., i.p. or orally to each set of rats. The two doses of angiotensin II are given to each rat again at 30, 60, 90, 120, 180, 240 and 300 minutes post dosing the compound or vehicle. The vasopressor response of angiotensin II is measured for the increase in systolic blood pressure in mmhg. The percentage of antagonism or blockade of the vasopressor response of angiotensin II by a compound is calculated using the vasopressor response (increase in systolic blood pressure) of angiotensin II of each rat predosing the compound as 100%. A compound is considered active if at 30 mg/kg i.v. it antagonized at least 50% of the response.

[1] = 1 mg/kg I.V., AII 0.1 mcg/kg IV, 30 min post dose, 1 mg/kg
[2] = 1 mg/kg I.V., AII 0.1 mcg/kg IV, 60 min post dose, 1 mg/kg
[3] = 1 mg/kg I.V., AII 0.1 mcg/kg IV, 90 min post dose, 1 mg/kg
[4] = 1 mg/kg I.V., AII 0.1 mcg/kg IV, 120 min post dose, 1 mg/kg
[5] = 1 mg/kg I.V., AII 0.1 mcg/kg IV, 180 min post dose, 1 mg/kg
[6] = 1 mg/kg I.V., AII 0.1 mcg/kg IV, 240 min post dose, 1 mg/kg
[7] = 2 mg/kg P.O., AII 0.05 mcg/kg IV, 30 min post dose, 2 mg/kg
[8] = 2 mg/kg P.O., AII 0.05 mcg/kg IV, 90 min post dose, 2 mg/kg
[9] = 2 mg/kg P.O., AII 0.05 mcg/kg IV, 120 min post dose, 2 mg/kg
[10] = 2 mg/kg P.O., AII 0.05 mcg/kg IV, 180 min post dose, 2 mg/kg
[11] = 2 mg/kg P.O., AII 0.1 mcg/kg IV, 60 min post dose, 2 mg/kg
[12] = 2 mg/kg P.O., AII 0.1 mcg/kg IV, 120 min post dose, 2 mg/kg
[13] = 2 mg/kg P.O., AII 0.1 mcg/kg IV, 180 min post dose, 2 mg/kg

With `CCCCc1nc2ccc(C(C)(O)CC3CCCN3)cc2c(=O)n1Cc1ccc(-c2ccccc2-c2nnn[nH]2)cc1` (stereo not drawn) [Example 79, CIS-2-Butyl-6-[1-hydroxy-1-methyl-2-(2-pyrrolidinyl)ethyl]-3-[[21-(1H-tetrazol-5-yl)[1,1'-biphenyl]-4-yl]methyl]-4(3H)-quinazolinone] the Change [1] was 15 mmhg and 7 mmhg, the “Response After AII” value [1] was 205 mmhg and the Change [2] was 19 mmhg and 15 mmhg. The “Response After AII” value [2] was 214 mmhg and 210 mmhg, the “Response After AII” value (1 mg/kg I.V., AII 0.1 mcg/kg IV, 90 min post dose) was 220 mmhg and the Change [3] was 25 mmhg and 15 mmhg. For the same compound, the “Response After AII” value [3] was 215 mmhg, the Change [4] was 30 mmhg and 25 mmhg and the “Response After AII” value [4] was 230 mmhg and 220 mmhg. The “Response After AII” value (1 mg/kg I.V., AII 0.1 mcg/kg IV, 180 min post dose) was 220 mmhg, the Change [5] was 30 mmhg and 15 mmhg and the “Response After AII” value [5] was 225 mmhg. For the same compound, the Change [6] was 33 mmhg and 35 mmhg, the “Response After AII” value [6] was 238 mmhg and 240 mmhg and the “Control Before AII” value (1 mg/kg I.V., before AII 0.05 mcg/kg IV, 30 min post dose) was 200 mmhg. For the same compound, the “Control Before AII” value (1 mg/kg I.V., before AII 0.05 mcg/kg IV, 60 min post dose, 1 mg/kg) was 205 mmhg and 195 mmhg, the “Control Before AII” value (1 mg/kg I.V., before AII 0.05 mcg/kg IV, 90 min post dose) was 200 mmhg and the “Control Before AII” value (1 mg/kg I.V., before AII 0.05 mcg/kg IV, 120 min post dose) was 195 mmhg. The “Control Before AII” value (1 mg/kg I.V., before AII 0.05 mcg/kg IV, 180 min post dose, 1 mg/kg) was 205 mmhg and 195 mmhg, the “Control Before AII” value (1 mg/kg I.V., before AII 0.05 mcg/kg IV, 240 min post dose, 1 mg/kg) was 195 mmhg and 200 mmhg and the “Control Before AII” value (1 mg/kg I.V., before AII 0.1 mcg/kg IV, 30 min post dose, 1 mg/kg) was 190 mmhg and 195 mmhg. The “Control Before AII” value (1 mg/kg I.V., before AII 0.1 mcg/kg IV, 60 min post dose) was 195 mmhg, the “Control Before AII” value (1 mg/kg I.V., before AII 0.1 mcg/kg IV, 90 min post dose, 1 mg/kg) was 195 mmhg and 200 mmhg and the “Control Before AII” value (1 mg/kg I.V., before AII 0.1 mcg/kg IV, 120 min post dose, 1 mg/kg) was 200 mmhg and 195 mmhg. The “Control Before AII” value (1 mg/kg I.V., before AII 0.1 mcg/kg IV, 180 min post dose, 1 mg/kg) was 195 mmhg and 205 mmhg, the “Control Before AII” value (1 mg/kg I.V., before AII 0.1 mcg/kg IV, 240 min post dose) was 205 mmhg and the Change [7] was 30 mmhg and 25 mmhg. For the same compound, the “Response After AII” value [7] was 260 mmhg and 275 mmhg, the Change (2 mg/kg P.O., AII 0.05 mcg/kg IV, 60 min post dose) was 30 mmhg and the “Response After AII” value (2 mg/kg P.O., AII 0.05 mcg/kg IV, 60 min post dose, 2 mg/kg) was 265 mmhg and 270 mmhg. The Change [8] was 20 mmhg and 28 mmhg, the “Response After AII” value [8] was 245 mmhg and 258 mmhg and the Change [9] was 17 mmhg and 30 mmhg. For the same compound, the “Response After AII” value [9] was 242 mmhg and 265 mmhg, the Change [10] was 17 mmhg and 35 mmhg and the “Response After AII” value [10] was 252 mmhg and 275 mmhg. The Change (2 mg/kg P.O., AII 0.1 mcg/kg IV, 30 min post dose) was 30 mmhg, the “Response After AII” value (2 mg/kg P.O., AII 0.1 mcg/kg IV, 30 min post dose, 2 mg/kg) was 265 mmhg and 275 mmhg and the Change [11] was 35 mmhg and 40 mmhg. The “Response After AII” value [11] was 260 mmhg and 280 mmhg, the “Response After AII” value (2 mg/kg P.O., AII 0.1 mcg/kg IV, 90 min post dose) was 270 mmhg and the Change (2 mg/kg P.O., AII 0.1 mcg/kg IV, 90 min post dose, 2 mg/kg) was 45 mmhg and 40 mmhg. The Change [12] was 31 mmhg and 30 mmhg, the “Response After AII” value [12] was 255 mmhg and 270 mmhg and the Change [13] was 32 mmhg and 45 mmhg. The “Response After AII” value [13] was 262 mmhg and 280 mmhg, the “Control Before AII” value (2 mg/kg P.O., before AII 0.05 mcg/kg IV, 30 min post dose) was 250 mmhg and the “Control Before AII” value (2 mg/kg P.O., before AII 0.05 mcg/kg IV, 30 min post dose, 2 mg/kg) was 230 mmhg. The “Control Before AII” value (2 mg/kg P.O., before AII 0.05 mcg/kg IV, 60 min post dose) was 240 mmhg, the “Control Before AII” value (2 mg/kg P.O., before AII 0.05 mcg/kg IV, 60 min post dose, 2 mg/kg) was 235 mmhg and the “Control Before AII” value (2 mg/kg P.O., before AII 0.05 mcg/kg IV, 90 min post dose, 2 mg/kg) was 225 mmhg and 230 mmhg. For the same compound, the “Control Before AII” value (2 mg/kg P.O., before AII 0.05 mcg/kg IV, 120 min post dose, 2 mg/kg) was 225 mmhg and 235 mmhg, the “Control Before AII” value (2 mg/kg P.O., before AII 0.05 mcg/kg IV, 180 min post dose) was 240 mmhg and the “Control Before AII” value (2 mg/kg P.O., before AII 0.05 mcg/kg IV, 180 min post dose, 2 mg/kg) was 235 mmhg. For the same compound, the “Control Before AII” value (2 mg/kg P.O., before AII 0.1 mcg/kg IV, 30 min post dose, 2 mg/kg) was 235 mmhg and 245 mmhg, the “Control Before AII” value (2 mg/kg P.O., before AII 0.1 mcg/kg IV, 60 min post dose) was 240 mmhg and the “Control Before AII” value (2 mg/kg P.O., before AII 0.1 mcg/kg IV, 60 min post dose, 2 mg/kg) was 225 mmhg. The “Control Before AII” value (2 mg/kg P.O., before AII 0.1 mcg/kg IV, 90 min post dose, 2 mg/kg) was 225 mmhg and 230 mmhg, the “Control Before AII” value (2 mg/kg P.O., before AII 0.1 mcg/kg IV, 120 min post dose) was 240 mmhg and the “Control Before AII” value (2 mg/kg P.O., before AII 0.1 mcg/kg IV, 120 min post dose, 2 mg/kg) was 224 mmhg. For the same compound, the “Control Before AII” value (2 mg/kg P.O., before AII 0.1 mcg/kg IV, 180 min post dose, 2 mg/kg) was 230 mmhg and 235 mmhg.
